Assay results published in paper PMC11352961, “Peptide dendrimers transfecting CRISPR/Cas9 plasmid DNA: optimization and mechanism” (RSC Chemical Biology, 2024).
Bridge positions count the residues as written; N and C are the ends. Square brackets hold non-standard residues; d marks the D form. Side chains are listed from the residue outwards. Peptide text beside a SMILES is read from it. I, II: the chains in the order shown. * marks the point of attachment. Stearoyl = CCCCCCCCCCCCCCCCCC(=O)*; Palmitoyl = CCCCCCCCCCCCCCCC(=O)*

Columns and labels:
[1] = tested on: HEK293 cells; test: Cell viability by PrestoBlue assay after transfection, HEK cells; assay type: cell-based; settings: 4 h
[2] = tested on: HeLa cells; test: Cell viability by PrestoBlue assay after transfection, HeLa cells; assay type: cell-based; settings: 4 h

## CCCCCCCCCCCCCCCCCC(=O)NCCCC[C@@H](NC(=O)[C@@H](CCCCNC(=O)[C@@H](CC(C)C)NC(=O)[C@@H](CCCNC(=N)N)NC(=O)[C@@H](CCCCNC(=O)[C@@H](CC(C)C)NC(=O)[C@@H](CCCNC(=N)N)NC(=O)[C@@H](CCCCNC(=O)[C@@H](CC(C)C)NC(=O)[C@H](N)CCCNC(=N)N)NC(=O)[C@@H](CC(C)C)NC(=O)[C@H](N)CCCNC(=N)N)NC(=O)[C@@H](CC(C)C)NC(=O)[C@@H](CCCNC(=N)N)NC(=O)[C@@H](CCCCNC(=O)[C@@H](CC(C)C)NC(=O)[C@H](N)CCCNC(=N)N)NC(=O)[C@@H](CC(C)C)NC(=O)[C@H](N)CCCNC(=N)N)NC(=O)[C@@H](CC(C)C)NC(=O)[C@@H](CCCNC(=N)N)NC(=O)[C@@H](CCCCNC(=O)[C@@H](CC(C)C)NC(=O)[C@@H](CCCNC(=N)N)NC(=O)[C@@H](CCCCNC(=O)[C@@H](CC(C)C)NC(=O)[C@H](N)CCCNC(=N)N)NC(=O)[C@@H](CC(C)C)NC(=O)[C@H](N)CCCNC(=N)N)NC(=O)[C@@H](CC(C)C)NC(=O)[C@@H](CCCNC(=N)N)NC(=O)[C@@H](CCCCNC(=O)[C@@H](CC(C)C)NC(=O)[C@H](N)CCCNC(=N)N)NC(=O)[C@@H](CC(C)C)NC(=O)[C@H](N)CCCNC(=N)N)C(=O)N[C@H](CS)C(N)=O [Z22] (I: H-[dR][dL][dK]([dL-dR])[dR][dL][dK][dR][dL][dK][dK](Stearoyl)[dC]-NH2 / II: H-[dR][dL][dK]([dL-dR])[dR][dL][dK][dR][dL] / III: H-[dR][dL][dK]([dL-dR])[dR][dL] / IV: H-[dR][dL][dK]([dL-dR])[dR][dL]; amide I:6-IV:C, I:9-II:C, II:6-III:C)
[1]
  % viability HEK cells: 64 ± 4%
[2]
  % viability HeLa cells: 92 ± 7%

## CCCCCCCCCCCCCCCCCC(=O)NCCCC[C@H](NC(=O)[C@H](CCCCNC(=O)[C@H](CC(C)C)NC(=O)[C@H](CCCNC(=N)N)NC(=O)[C@H](CCCCNC(=O)[C@H](CC(C)C)NC(=O)[C@H](CCCNC(=N)N)NC(=O)[C@H](CCCCNC(=O)[C@H](CC(C)C)NC(=O)[C@@H](N)CCCNC(=N)N)NC(=O)[C@H](CC(C)C)NC(=O)[C@@H](N)CCCNC(=N)N)NC(=O)[C@H](CC(C)C)NC(=O)[C@H](CCCNC(=N)N)NC(=O)[C@H](CCCCNC(=O)[C@H](CC(C)C)NC(=O)[C@@H](N)CCCNC(=N)N)NC(=O)[C@H](CC(C)C)NC(=O)[C@@H](N)CCCNC(=N)N)NC(=O)[C@H](CC(C)C)NC(=O)[C@H](CCCNC(=N)N)NC(=O)[C@H](CCCCNC(=O)[C@H](CC(C)C)NC(=O)[C@H](CCCNC(=N)N)NC(=O)[C@H](CCCCNC(=O)[C@H](CC(C)C)NC(=O)[C@@H](N)CCCNC(=N)N)NC(=O)[C@H](CC(C)C)NC(=O)[C@@H](N)CCCNC(=N)N)NC(=O)[C@H](CC(C)C)NC(=O)[C@H](CCCNC(=N)N)NC(=O)[C@H](CCCCNC(=O)[C@H](CC(C)C)NC(=O)[C@@H](N)CCCNC(=N)N)NC(=O)[C@H](CC(C)C)NC(=O)[C@@H](N)CCCNC(=N)N)C(=O)N[C@@H](CS)C(N)=O [Z24] (I: H-RLK([Leu-Arg])RLKRLKK(Stearoyl)C-NH2 / II: H-RLK([Leu-Arg])RLKRL / III: H-RLK([Leu-Arg])RL / IV: H-RLK([Leu-Arg])RL; amide I:6-IV:C, I:9-II:C, II:6-III:C)
[1]
  % viability HEK cells: 86 ± 1%
[2]
  % viability HeLa cells: 91 ± 6%

## CCCCCCCCCCCCCCCCCC(=O)NCCCC[C@H](NC(=O)[C@H](CCCCNC(=O)[C@H](CC(C)C)NC(=O)[C@H](CCCNC(=N)N)NC(=O)[C@H](CCCCNC(=O)[C@H](CC(C)C)NC(=O)[C@H](CCCNC(=N)N)NC(=O)[C@H](CCCCNC(=O)[C@H](CC(C)C)NC(=O)[C@@H](N)CCCNC(=N)N)NC(=O)[C@H](CC(C)C)NC(=O)[C@@H](N)CCCNC(=N)N)NC(=O)[C@H](CC(C)C)NC(=O)[C@H](CCCNC(=N)N)NC(=O)[C@H](CCCCNC(=O)[C@H](CC(C)C)NC(=O)[C@@H](N)CCCNC(=N)N)NC(=O)[C@H](CC(C)C)NC(=O)[C@@H](N)CCCNC(=N)N)NC(=O)[C@H](CC(C)C)NC(=O)[C@H](CCCNC(=N)N)NC(=O)[C@H](CCCCNC(=O)[C@H](CC(C)C)NC(=O)[C@H](CCCNC(=N)N)NC(=O)[C@H](CCCCNC(=O)[C@H](CC(C)C)NC(=O)[C@@H](N)CCCNC(=N)N)NC(=O)[C@H](CC(C)C)NC(=O)[C@@H](N)CCCNC(=N)N)NC(=O)[C@H](CC(C)C)NC(=O)[C@H](CCCNC(=N)N)NC(=O)[C@H](CCCCNC(=O)[C@H](CC(C)C)NC(=O)[C@@H](N)CCCNC(=N)N)NC(=O)[C@H](CC(C)C)NC(=O)[C@@H](N)CCCNC(=N)N)C(=O)N[C@@H](C)C(N)=O [Z25] (I: H-RLK([Leu-Arg])RLKRLKK(Stearoyl)A-NH2 / II: H-RLK([Leu-Arg])RLKRL / III: H-RLK([Leu-Arg])RL / IV: H-RLK([Leu-Arg])RL; amide I:6-IV:C, I:9-II:C, II:6-III:C)
[1]
  % viability HEK cells: 85 ± 2%
[2]
  % viability HeLa cells: 104 ± 8%

## CCCCCCCCCCCCCCCCCC(=O)NCCCC[C@@H](NC(=O)[C@@H](CCCCNC(=O)CCCCCCCCCCCCCCCCC)NC(=O)[C@@H](CCCCNC(=O)[C@@H](CC(C)C)NC(=O)[C@@H](CCCCN)NC(=O)[C@@H](CCCCNC(=O)[C@@H](CC(C)C)NC(=O)[C@@H](CCCCN)NC(=O)[C@@H](CCCCNC(=O)[C@@H](CC(C)C)NC(=O)[C@H](N)CCCCN)NC(=O)[C@@H](CC(C)C)NC(=O)[C@H](N)CCCCN)NC(=O)[C@@H](CC(C)C)NC(=O)[C@@H](CCCCN)NC(=O)[C@@H](CCCCNC(=O)[C@@H](CC(C)C)NC(=O)[C@H](N)CCCCN)NC(=O)[C@@H](CC(C)C)NC(=O)[C@H](N)CCCCN)NC(=O)[C@@H](CC(C)C)NC(=O)[C@@H](CCCCN)NC(=O)[C@@H](CCCCNC(=O)[C@@H](CC(C)C)NC(=O)[C@@H](CCCCN)NC(=O)[C@@H](CCCCNC(=O)[C@@H](CC(C)C)NC(=O)[C@H](N)CCCCN)NC(=O)[C@@H](CC(C)C)NC(=O)[C@H](N)CCCCN)NC(=O)[C@@H](CC(C)C)NC(=O)[C@@H](CCCCN)NC(=O)[C@@H](CCCCNC(=O)[C@@H](CC(C)C)NC(=O)[C@H](N)CCCCN)NC(=O)[C@@H](CC(C)C)NC(=O)[C@H](N)CCCCN)C(N)=O [Z27] (I: H-[dK][dL][dK]([dL-dK])[dK][dL][dK][dK][dL][dK][dK](Stearoyl)[dK](Stearoyl)-NH2 / II: H-[dK][dL][dK]([dL-dK])[dK][dL][dK][dK][dL] / III: H-[dK][dL][dK]([dL-dK])[dK][dL] / IV: H-[dK][dL][dK]([dL-dK])[dK][dL]; amide I:6-IV:C, I:9-II:C, II:6-III:C)
[1]
  % viability HEK cells: 74.8 ± 0.7%
[2]
  % viability HeLa cells: 94 ± 5%

## CC(C)C[C@@H](NC(=O)[C@@H](CC(C)C)NC(=O)[C@@H](CC(C)C)NC(=O)[C@@H](CC(C)C)NC(=O)[C@@H](CC(C)C)NC(=O)[C@@H](CCCCNC(=O)[C@@H](CC(C)C)NC(=O)[C@@H](CCCCN)NC(=O)[C@@H](CCCCNC(=O)[C@@H](CC(C)C)NC(=O)[C@@H](CCCCN)NC(=O)[C@@H](CCCCNC(=O)[C@@H](CC(C)C)NC(=O)[C@H](N)CCCCN)NC(=O)[C@@H](CC(C)C)NC(=O)[C@H](N)CCCCN)NC(=O)[C@@H](CC(C)C)NC(=O)[C@@H](CCCCN)NC(=O)[C@@H](CCCCNC(=O)[C@@H](CC(C)C)NC(=O)[C@H](N)CCCCN)NC(=O)[C@@H](CC(C)C)NC(=O)[C@H](N)CCCCN)NC(=O)[C@@H](CC(C)C)NC(=O)[C@@H](CCCCN)NC(=O)[C@@H](CCCCNC(=O)[C@@H](CC(C)C)NC(=O)[C@@H](CCCCN)NC(=O)[C@@H](CCCCNC(=O)[C@@H](CC(C)C)NC(=O)[C@H](N)CCCCN)NC(=O)[C@@H](CC(C)C)NC(=O)[C@H](N)CCCCN)NC(=O)[C@@H](CC(C)C)NC(=O)[C@@H](CCCCN)NC(=O)[C@@H](CCCCNC(=O)[C@@H](CC(C)C)NC(=O)[C@H](N)CCCCN)NC(=O)[C@@H](CC(C)C)NC(=O)[C@H](N)CCCCN)C(N)=O [Z28] (I: H-[dK][dL][dK]([dL-dK])[dK][dL][dK][dK][dL][dK][dL][dL][dL][dL][dL]-NH2 / II: H-[dK][dL][dK]([dL-dK])[dK][dL][dK][dK][dL] / III: H-[dK][dL][dK]([dL-dK])[dK][dL] / IV: H-[dK][dL][dK]([dL-dK])[dK][dL]; amide I:6-IV:C, I:9-II:C, II:6-III:C)
[1]
  % viability HEK cells: 103 ± 0.2%
[2]
  % viability HeLa cells: 101 ± 7%

## CCCCCCCCCCCCCCCC(=O)NCCCC[C@@H](NC(=O)[C@@H](CCCCNC(=O)[C@@H](CC(C)C)NC(=O)[C@@H](CCCCN)NC(=O)[C@@H](CCCCNC(=O)[C@@H](CC(C)C)NC(=O)[C@@H](CCCCN)NC(=O)[C@@H](CCCCNC(=O)[C@@H](CC(C)C)NC(=O)[C@H](N)CCCCN)NC(=O)[C@@H](CC(C)C)NC(=O)[C@H](N)CCCCN)NC(=O)[C@@H](CC(C)C)NC(=O)[C@@H](CCCCN)NC(=O)[C@@H](CCCCNC(=O)[C@@H](CC(C)C)NC(=O)[C@H](N)CCCCN)NC(=O)[C@@H](CC(C)C)NC(=O)[C@H](N)CCCCN)NC(=O)[C@@H](CC(C)C)NC(=O)[C@@H](CCCCN)NC(=O)[C@@H](CCCCNC(=O)[C@@H](CC(C)C)NC(=O)[C@@H](CCCCN)NC(=O)[C@@H](CCCCNC(=O)[C@@H](CC(C)C)NC(=O)[C@H](N)CCCCN)NC(=O)[C@@H](CC(C)C)NC(=O)[C@H](N)CCCCN)NC(=O)[C@@H](CC(C)C)NC(=O)[C@@H](CCCCN)NC(=O)[C@@H](CCCCNC(=O)[C@@H](CC(C)C)NC(=O)[C@H](N)CCCCN)NC(=O)[C@@H](CC(C)C)NC(=O)[C@H](N)CCCCN)C(N)=O [Z29] (I: H-[dK][dL][dK]([dL-dK])[dK][dL][dK][dK][dL][dK][dK](Palmitoyl)-NH2 / II: H-[dK][dL][dK]([dL-dK])[dK][dL][dK][dK][dL] / III: H-[dK][dL][dK]([dL-dK])[dK][dL] / IV: H-[dK][dL][dK]([dL-dK])[dK][dL]; amide I:6-IV:C, I:9-II:C, II:6-III:C)
[1]
  % viability HEK cells: 87 ± 1%
[2]
  % viability HeLa cells: 95 ± 5%
